Usually IC50 stands for the concentration needed to halve the response being measured.

Structures are written as SMILES.

IC50 data for 4 molecules are collected here from BindingDB's records for patent US20230365554 (The Broad Institute, 2023).

For experiment [1], the target named is T1, Casein kinase I isoform alpha (Homo sapiens, UniProt P48729). The experiment can be described thus: CSNK1A1 Assay 2. The method, then: CSNK1A1-inhibitory activity of compounds of the present invention in presence of 1 μM adenosine-tri-phosphate (ATP) was quantified employing the CSNK1A1 assay as described in the following paragraphs. In essence, the enzyme activity is measured by quantification of the adenosine-di-phosphate (ADP), which is generated as a co-product of the enzyme reaction, via the ADP-Glo Kinase Assay kit from the company Promega. This detection system works as follows: In a first step the ATP not consumed in the kinase reaction is quantitatively converted to cAMP employing an adenylate cyclase ( ADP-Glo-reagent ), then the adenylate cyclase is stopped and the ADP generated in the kinase reaction converted to ATP which generates in a luciferase-based reaction a glow-luminescence signal ( Kinase Detection Reagent ). Recombinant fusion protein of N-terminal Glutathion-S-Transferase (GST) and full-length human CSNK1A1, expressed by baculovirus infected insect cells and purified via Glutathion affinity chromatography, was purchased from Life Technologies (product no. PV4174) and used as enzyme. As substrate for the kinase reaction the biotinylated peptide biotin-Ahx-KRRRAL-pS-VASLPGL (C-terminus in amide form) was used which can be purchased e.g. from the company Biosyntan (Berlin-Buch, Germany).For the assay 50 nl of a 100 fold concentrated solution of the test compound in DMSO was pipetted into a white 1536-well microtiter plate (Greiner Bio-One, Frickenhausen, Germany), 2 μL of a solution of CSNK1A1 in aqueous assay buffer [50 mM HEPES pH 7.5, 10% (v/v) glycerol, 10 mM MgCl2, 50 mM NaCl, 1 mM dithiothreitol, 0.01% (w/v) bovine serum albumin, 0.01% (v/v) Triton X-100] were added and the mixture was incubated for 15 min at 22 C. to allow pre-binding of the test compounds to the enzyme before the start of the kinase reaction. […]

The target in experiment [2] is T1, Casein kinase I isoform alpha. The experiment can be described thus: CSNK1A1 Assay 1. The method, then: CSNK1A1-inhibitory activity of compounds of the present invention in presence of 1 μM adenosine-tri-phosphate (ATP) was quantified employing the CSNK1A1 assay as described in the following paragraphs. In essence, the enzyme activity is measured by quantification of the adenosine-di-phosphate (ADP), which is generated as a co-product of the enzyme reaction, via the ADP-Glo Kinase Assay kit from the company Promega. This detection system works as follows: In a first step the ATP not consumed in the kinase reaction is quantitatively converted to cAMP employing an adenylate cyclase ( ADP-Glo-reagent ), then the adenylate cyclase is stopped and the ADP generated in the kinase reaction converted to ATP which generates in a luciferase-based reaction a glow-luminescence signal ( Kinase Detection Reagent ).Recombinant fusion protein of N-terminal Glutathion-S-Transferase (GST) and full-length human CSNK1A1, expressed by baculovirus infected insect cells and purified via Glutathion affinity chromatography, was purchased from Life Technologies (product no. PV4174) and used as enzyme. […] Subsequently 2.5 μL of the kinase detection reagent (1.2 fold more concentrated than recommended by the producer) were added, the resulting mixture was incubated at 22° C. for 1 h and then the luminescence measured with a suitable measurement instrument (e.g. Viewlux from Perkin-Elmer). […]

The target of experiment [3] is Casein kinase I isoform delta (Homo sapiens, UniProt P48730). The experiment can be described thus: CSNK1D Assay. The procedure:
CSNK1D-inhibitory activity of compounds of the present invention in presence of 1 μM adenosine-tri-phosphate (ATP) was quantified employing the CSNK1D assay as described in the following paragraphs. In essence, the enzyme activity is measured by quantification of the adenosine-di-phosphate (ADP), which is generated as a co-product of the enzyme reaction, via the ADP-Glo Kinase Assay kit from the company Promega. This detection system works as follows: In a first step the ATP not consumed in the kinase reaction is quantitatively converted to cAMP employing an adenylate cyclase ( ADP-Glo-reagent ), then the adenylate cyclase is stopped and the ADP generated in the kinase reaction converted to ATP which generates in a luciferase-based reaction a glow-luminescence signal ( Kinase Detection Reagent ).Recombinant fusion protein of N-terminal Glutathion-S-Transferase (GST) and full-length human CSNK1D, expressed by baculovirus infected insect cells and purified via Glutathion affinity chromatography, was purchased from Life Technologies (product no. PV3665) and used as enzyme. […]

T1 sequence (P48729 whole entry, canonical isoform): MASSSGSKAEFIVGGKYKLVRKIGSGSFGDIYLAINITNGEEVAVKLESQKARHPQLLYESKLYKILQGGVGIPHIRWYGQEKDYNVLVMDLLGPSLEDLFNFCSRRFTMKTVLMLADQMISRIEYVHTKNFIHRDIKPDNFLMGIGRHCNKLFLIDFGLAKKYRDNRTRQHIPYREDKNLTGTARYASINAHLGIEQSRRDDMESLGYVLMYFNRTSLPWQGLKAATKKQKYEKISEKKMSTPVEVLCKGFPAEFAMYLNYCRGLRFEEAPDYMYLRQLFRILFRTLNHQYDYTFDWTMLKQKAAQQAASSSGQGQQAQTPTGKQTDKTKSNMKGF
Sequence of Casein kinase I isoform delta (P48730 whole entry, canonical isoform): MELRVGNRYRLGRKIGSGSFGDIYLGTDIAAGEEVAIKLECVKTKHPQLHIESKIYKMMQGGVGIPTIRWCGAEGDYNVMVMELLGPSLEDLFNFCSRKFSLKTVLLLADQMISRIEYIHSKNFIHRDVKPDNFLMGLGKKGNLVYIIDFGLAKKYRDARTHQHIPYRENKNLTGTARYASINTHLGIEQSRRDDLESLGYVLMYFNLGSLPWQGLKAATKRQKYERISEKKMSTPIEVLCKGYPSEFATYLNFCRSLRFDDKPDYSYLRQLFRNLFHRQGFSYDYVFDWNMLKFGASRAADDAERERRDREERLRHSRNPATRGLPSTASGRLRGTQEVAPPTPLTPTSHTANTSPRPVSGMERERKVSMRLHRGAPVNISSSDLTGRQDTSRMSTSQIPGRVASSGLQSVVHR

In experiment [1], `CC(=O)Nc1cc(-c2[nH]c3c(c2Nc2ccccc2)C(=O)N(C)CC3)ccn1` yielded an IC50 of 11 nM.

The molecule `CN1CCc2[nH]c(-c3ccnc(NC(=O)[C@@H]4C[C@H]4F)c3)c(Nc3ccccc3)c2C1=O` (relative stereo) [WO 2016/120196, Example 25] registered an IC50 in experiment [2] of 63 nM.

Take `Cc1cn(C)c(=O)c2c(Nc3ccccc3)c(-c3ccnc(NC(=O)Cc4ccc(F)cc4)c3)[nH]c12` [US20230365554, Example 38]: the IC50 in experiment [1] was determined as 4.2 nM; in experiment [3] it was 6.6 nM.

As for `CC1CN(C)C(=O)c2c1[nH]c(-c1ccnc(NC(=O)C(CC(F)F)c3ccc(F)cc3)c1)c2Nc1ccccc1` (mixture of isomers) [US20230365554, Example 10], the IC50 in experiment [1] is 5.4 nM; in experiment [3], 9.1 nM.
